AOA data for one molecule are collected here from US20050136079A1, “Cosmetic compositions containing fullerene clusters” (priority 2003, published 2005).

The structures appear in SMILES notation.

The test can be described thus: Antioxidant activity (AOA) by coulometric titration with electrogenerated bromine-based oxidants. Particulars: Coulombs spent for titration of 100 g of analyzed material; sample macerated 1:5 in water or water/alcohol. The protocol:
The quantitative assessment of the antioxidant activity of the cosmetic composition containing fullerene clusters was tested utilizing bromine-based oxidants generated electrochemically.
Procedure: • 1. Electrogeneration of bromine-based oxidants and coulonometric tritration were performed with a potentiostate using 1 cm^2 platinum working electrode at a current 5 mA • 2. Bromine oxidant was generated 0.2 M KBr dissolved in 0.1M H2SO4/tartrate buffer solution, which ensure 100% yield of oxidant by current. The final point was determined amperometrically with two polarized platinum electrodes at E=20 mV. • 3. Samples for analysis in water or water/alcohol media were obtained by maceration of the mixture of a cosmetic containing the active ingredient listed in the following table and this media taken in proporation 1:5 by weight. • 4. Antioxidant activity (AOA) is expressed as amount of Coulombs spent for titration of 100 g of the analyzed starting cosmetic substance.
Bromine compounds including Br2, Br3^− and active bromo-radicals are electrochemically generated and adsorbed at the surface of the platinum electrode and then these radicals act as oxidating agents in redox reactions, reactions of electrophilic substitution and addition to double bonds e.g. in the fullerene molecules in the fullerene cluster of cosmetic composition. […]

In the case of `CCCCC/C=C\C/C=C\CCCCCCCC(=O)O` [Linoleic Acid without C60, Linoleic Acid], the AOA was determined as 4.8 kCb/100 g.
